The text below walks through data of patent US9981964B2 (Agency for Science, Technology and Research, priority 2013, dated 2018).

A word on the pIC50: it is −log10 of the IC50, conventionally taken in molar units. A lower pIC50 goes with a high IC50.

In this assay the test system is HEK293-STF3A cells. As to the kind of experiment: STF3A assay (STF luciferase reporter in Wnt3A-expressing HEK293 cells). The class given is cell-based. The note with it: Homo sapiens, 24 h, 1 day of treatment. The text has this: HEK293-STF cell line was modified from Human embryonic kidney cell line HEK293 transfected with the STF reporter. HEK293-STF3A cell line was further modified from HEK293-STF cell line to express Wnt3A. This cell line was used to identify compounds that regulate either early or late signaling components of the Wnt pathway. These two cell lines were obtained from David Virshup's laboratory, Duke-NUS. L-Wnt3A (ATCC, #CRL-2647) cell line was used for providing Wnt3A conditioned media. The three cell lines were grown in DMEM with 10% FBS incubated in 37° C. with 5% CO2.
2×10^4 HEK293-STF3A cells in 75 μl culture media were seeded in each well of white 96 well plates (Greiner #655098) and incubated overnight at 37° C. 25 μl serially diluted compound was added to the cells to give final concentration of 50 μM to 1.5 nM. After 1 day of treatment, 100 μl of Steady-Glo Luciferase Assay reagent (#E2520, Promega) was added to each well and incubated for 10 minutes at room temperature. Luminescence was measured using Tecan Safire2 plate reader.
(Reporter assays use an easily measured gene product as a stand-in for the process of interest.)

The structures appear in SMILES notation. pIC50: −log10 of the molar value.

Consider `Cc1ccc(-c2ccc(NC(=O)CN3CCCC4=C3C(=O)N(C3CC3)C4=O)nc2)cn1` [Compound 85, 2-(6-cyclopropyl-5,7-dioxo-2,3,4,5,6,7-hexahydro-1H-pyrrolo[3,4-b]pyridin-1-yl)-N-(6′-methyl-[3,3′-bipyridin]-6-yl)acetamide], for which the pIC50 is above 7.00.
In the case of `Cc1ccncc1-c1ccc(NC(=O)CN2CCCC3=C2C(=O)N(C2CC2)C3=O)nc1` [Compound 111, 2-(6-cyclopropyl-5,7-dioxo-2,3,4,5,6,7-hexahydro-1H-pyrrolo[3,4-b]pyridin-1-yl)-N-(4′-methyl-[3,3′-bipyridin]-6-yl)acetamide] it was above 6.00; in that of `CN1C(=O)C2=C(C1=O)N(CC(=O)Nc1cnc(-c3cccnc3)cn1)CCC2` [Compound 21, 2-(6-methyl-5,7-dioxo-2,3,4,5,6,7-hexahydro-1H-pyrrolo[3,4-b]pyridin-1-yl)-N-(5-(pyridin-3-yl)pyrazin-2-yl)acetamide], above 7.00.
For `CC(C(=O)Nc1ccc(-c2cccnc2)cn1)N1CCCC2=C1C(=O)N(C)C2=O` (centres unmarked) [Compound 11, N-([3,3′-bipyridin]-6-yl)-2-(6-methyl-5,7-dioxo-2,3,4,5,6,7-hexahydro-1H-pyrrolo[3,4-b]pyridin-1-yl)propanamide], the negative-log IC50 (pIC50) is above 7.00.
For `O=C(CN1CCCC2=C1C(=O)N(C1CC1)C2=O)Nc1ccc(-c2ccc(OC(F)(F)F)cc2)nn1` [Compound 57, 2-(6-cyclopropyl-5,7-dioxo-2,3,4,5,6,7-hexahydro-1H-pyrrolo[3,4-b]pyridin-1-yl)-N-(6-(4-(trifluoromethoxy)phenyl)pyridazin-3-yl)acetamide], the negative-log IC50 (pIC50) is above 6.00.
`CN1C(=O)C2=C(C1=O)N(CC(=O)Nc1ccc(-c3cccc(F)c3)nc1)CCC2` [Compound 154, N-(6-(3-fluorophenyl)pyridin-3-yl)-2-(6-methyl-5,7-dioxo-2,3,4,5,6,7-hexahydro-1H-pyrrolo[3,4-b]pyridin-1-yl)acetamide] had a pIC50 above 7.00.
In turn, `CN1C(=O)C2=C(C1=O)N(CC(=O)Nc1ccc(-c3ccncc3)nn1)CCC2` [Compound 71, 2-(6-methyl-5,7-dioxo-2,3,4,5,6,7-hexahydro-1H-pyrrolo[3,4-b]pyridin-1-yl)-N-(6-(pyridin-4-yl)pyridazin-3-yl)acetamide] gave a pIC50 above 6.00.
`Cc1cccc(-c2ccc(NC(=O)CN3CCCC4=C3C(=O)N(C)C4=O)nc2)n1` [Compound 34, 2-(6-methyl-5,7-dioxo-2,3,4,5,6,7-hexahydro-1H-pyrrolo[3,4-b]pyridin-1-yl)-N-(6-methyl-[2,3′-bipyridin]-6′-yl)acetamide] gave a negative logarithm of the IC50 (pIC50) above 7.00.
`CN1C(=O)C2=C(C1=O)N(CC(=O)Nc1ccc(-c3cccnn3)cc1)CCC2` [Compound 47, 2-(6-methyl-5,7-dioxo-2,3,4,5,6,7-hexahydro-1H-pyrrolo[3,4-b]pyridin-1-yl)-N-(4-(pyridazin-3-yl)phenyl)acetamide] had a negative logarithm of the IC50 (pIC50) above 6.00.
Then `CN1C(=O)C2=C(C1=O)N(CC(=O)Nc1ccc(-c3cccc(F)c3)nn1)CCC2` [Compound 42, N-(6-(3-fluorophenyl)pyridazin-3-yl)-2-(6-methyl-5,7-dioxo-2,3,4,5,6,7-hexahydro-1H-pyrrolo[3,4-b]pyridin-1-yl)acetamide], with above 7.00; and `Cc1cnc(-c2ccc(NC(=O)CN3CCCC4=C3C(=O)N(C3CC3)C4=O)nc2)cn1` [Compound 157, 2-(6-cyclopropyl-5,7-dioxo-2,3,4,5,6,7-hexahydro-1H-pyrrolo[3,4-b]pyridin-1-yl)-N-(5-(5-methylpyrazin-2-yl)pyridin-2-yl)acetamide], with above 7.00.
Regarding `Cc1ccc(-c2ccc(NC(=O)CN3CCCC4=C3C(=O)N(C)C4=O)cn2)cc1` [Compound 158, 2-(6-methyl-5,7-dioxo-2,3,4,5,6,7-hexahydro-1H-pyrrolo[3,4-b]pyridin-1-yl)-N-(6-(p-tolyl)pyridin-3-yl)acetamide], the negative logarithm of the IC50 (pIC50) is above 7.00.
On to `Cc1cncc(-c2ccc(NC(=O)CN3CCCC4=C3C(=O)N(C)C4=O)nc2)n1` [Compound 129, 2-(6-methyl-5,7-dioxo-2,3,4,5,6,7-hexahydro-1H-pyrrolo[3,4-b]pyridin-1-yl)-N-(5-(6-methylpyrazin-2-yl)pyridin-2-yl)acetamide], for which the pIC50 was above 7.00.
Take `CN1C(=O)C2=C(C1=O)N(CC(=O)Nc1ccc(-c3ccccc3)nc1)CCC2` [Compound 37, 2-(6-methyl-5,7-dioxo-2,3,4,5,6,7-hexahydro-1H-pyrrolo[3,4-b]pyridin-1-yl)-N-(6-phenylpyridin-3-yl)acetamide]: the negative-log IC50 (pIC50) is above 7.00.
`CN1C(=O)C2=C(C1=O)N(CC(=O)Nc1ccc(-c3cncc(F)c3)cn1)CCC2` [Compound 143, N-(5′-fluoro-3,3′-bipyridin-6-yl)-2-(6-methyl-5,7-dioxo-2,3,4,5,6,7-hexahydro-1H-pyrrolo[3,4-b]pyridin-1-yl)acetamide] had a pIC50 above 7.00.
Consider `COc1cc(NC(=O)CN2CCCC3=C2C(=O)N(C)C3=O)ccc1-c1ccccc1` [Compound 99, N-(2-methoxy-[1,1′-biphenyl]-4-yl)-2-(6-methyl-5,7-dioxo-2,3,4,5,6,7-hexahydro-1H-pyrrolo[3,4-b]pyridin-1-yl)acetamide], for which the pIC50 was above 5.00.
Then `CN1C(=O)C2=C(C1=O)N(CC(=O)Nc1ccc(-c3ccc(F)cc3)nc1)CCC2` [Compound 152, N-(6-(4-fluorophenyl)pyridin-3-yl)-2-(6-methyl-5,7-dioxo-2,3,4,5,6,7-hexahydro-1H-pyrrolo[3,4-b]pyridin-1-yl)acetamide], with above 7.00; and `Cc1ccc(-c2ccc(NC(=O)CN3CCCC4=C3C(=O)N(C3CC3)C4=O)nc2)nc1` [Compound 146, 2-(6-cyclopropyl-5,7-dioxo-2,3,4,5,6,7-hexahydro-1H-pyrrolo[3,4-b]pyridin-1-yl)-N-(5-methyl-2,3′-bipyridin-6′-yl)acetamide], with above 6.00; and `CN1C(=O)C2=C(C1=O)N(CC(=O)Nc1ccc(-c3cncnc3)cc1)CCC2` [Compound 75, 2-(6-methyl-5,7-dioxo-2,3,4,5,6,7-hexahydro-1H-pyrrolo[3,4-b]pyridin-1-yl)-N-(4-(pyrimidin-5-yl)phenyl)acetamide], with above 7.00.
In the case of `O=C(CN1CCCC2=C1C(=O)N(C1CC1)C2=O)Nc1ccc(-c2cccnc2F)nc1` [Compound 135, 2-(6-cyclopropyl-5,7-dioxo-2,3,4,5,6,7-hexahydro-1H-pyrrolo[3,4-b]pyridin-1-yl)-N-(2′-fluoro-2,3′-bipyridin-5-yl)acetamide], the negative-log IC50 (pIC50) was above 7.00.
In turn, `Cc1ccc(-c2ccc(NC(=O)CN3CCCC4=C3C(=O)N(C3CC3)C4=O)cn2)cn1` [Compound 44, 2-(6-cyclopropyl-5,7-dioxo-2,3,4,5,6,7-hexahydro-1H-pyrrolo[3,4-b]pyridin-1-yl)-N-(6′-methyl-[2,3′-bipyridin]-5-yl)acetamide] showed a pIC50 above 7.00.
For `CN1C(=O)C2=C(C1=O)N(CC(=O)Nc1ccc(-c3cncnc3)nc1)CCC2` [Compound 103, 2-(6-methyl-5,7-dioxo-2,3,4,5,6,7-hexahydro-1H-pyrrolo[3,4-b]pyridin-1-yl)-N-(6-(pyrimidin-5-yl)pyridin-3-yl)acetamide], the negative-log IC50 (pIC50) was above 6.00.
In the case of `O=C(CN1CCCC2=C1C(=O)N(C1CC1)C2=O)Nc1ccc(-c2cc(F)ccn2)cn1` [Compound 156, 2-(6-cyclopropyl-5,7-dioxo-2,3,4,5,6,7-hexahydro-1H-pyrrolo[3,4-b]pyridin-1-yl)-N-(4-fluoro-[2,3′-bipyridin]-6′-yl)acetamide] it was above 7.00; in that of `O=C(CN1CCCC2=C1C(=O)N(C1CC1)C2=O)Nc1cnc(-c2cccnc2)cn1` [Compound 26, 2-(6-cyclopropyl-5,7-dioxo-2,3,4,5,6,7-hexahydro-1H-pyrrolo[3,4-b]pyridin-1-yl)-N-(5-(pyridin-3-yl)pyrazin-2-yl)acetamide], above 7.00.
In the case of `Cc1cnc(-c2ccc(NC(=O)CN3CCCC4=C3C(=O)N(C)C4=O)nc2)cn1` [Compound 132, 2-(6-methyl-5,7-dioxo-2,3,4,5,6,7-hexahydro-1H-pyrrolo[3,4-b]pyridin-1-yl)-N-(5-(5-methylpyrazin-2-yl)pyridin-2-yl)acetamide] it was above 7.00; in that of `COc1cccc(-c2ccc(NC(=O)CN3CCCC4=C3C(=O)N(C)C4=O)nn2)c1` [Compound 32, N-(6-(3-methoxyphenyl)pyridazin-3-yl)-2-(6-methyl-5,7-dioxo-2,3,4,5,6,7-hexahydro-1H-pyrrolo[3,4-b]pyridin-1-yl)acetamide], above 7.00; in that of `Cc1nc(-c2cccnc2)ccc1NC(=O)CN1CCCC2=C1C(=O)N(C1CC1)C2=O` [Compound 123, 2-(6-cyclopropyl-5,7-dioxo-2,3,4,5,6,7-hexahydro-1H-pyrrolo[3,4-b]pyridin-1-yl)-N-(6-methyl-2,3′-bipyridin-5-yl)acetamide], below 5.00.
`Cc1cncc(-c2ccc(NC(=O)CN3CCCC4=C3C(=O)N(C)C4=O)nc2)c1` [Compound 148, 2-(6-methyl-5,7-dioxo-2,3,4,5,6,7-hexahydro-1H-pyrrolo[3,4-b]pyridin-1-yl)-N-(5′-methyl-[3,3′-bipyridin]-6-yl)acetamide] gave a pIC50 above 7.00.
In the case of `Cc1ccnc(-c2ccc(NC(=O)CN3CCCC4=C3C(=O)N(C3CC3)C4=O)nc2)c1` [Compound 150, 2-(6-cyclopropyl-5,7-dioxo-2,3,4,5,6,7-hexahydro-1H-pyrrolo[3,4-b]pyridin-1-yl)-N-(4-methyl-[2,3′-bipyridin]-6′-yl)acetamide] it was above 7.00.
